From US5080884A, “Hydrocarbylphenyl diaminodithiol radionuclide complexes and their use in imaging” (Medi-Physics, Inc., priority 1991, dated 1992)

Key:
[1] = Biological distribution of Tc-99m complexes in rats (pentobarbital anesthesia); format: in vivo, Female Sprague-Dawley rats; conditions: average of 2 rats; for Blood, % Injected Dose/Gram Tissue / Brain, % Injected Dose/Gram Tissue / Heart, % Injected Dose/Gram Tissue: pentobarbital anesthesia; for Brain:Blood / Heart:Blood: ratio
Description: Distribution of the Tc-99m labeled compounds was evaluated in rats. Female Sprague-Dawley rats weighing 140 to 220 g (average 170 g) were anesthetized with sodium pentobarbital and were injected in a tail vein with from 0.05 to 10 mCi of the Tc-99m labeled complex in a volume of 0.2 to 0.5 ml. At least two rats were injected for each time point.
The animals were sacrificed at 5 and 30 minutes after injection and selected organs were removed; the tails were discharged to avoid interference from the injection site. The radioactivity in each organ was measured at a standard geometry with a […] sodium iodide scintillation detector adjusted for the 140 KeV emission of Tc-99m. The organs were also weighed to one hundredth of a gram and the activity was calculated as a percent of administered dose per gram.

[2] = Electrophoresis of Tc-99m complex (NaH2PO4, pH 4.5); format: physicochemical; conditions: 0.05 M NaH2PO4, pH 4.5, 300 volts, 30 min
[3] = 5 min after i.v. (tail vein) injection
[4] = 30 min after i.v. (tail vein) injection

In the case of “Tc-99m complex of 2-(2-Butylthio-2-methylpropylamino)-1-(2-mercapto-2-methylpropylamino)-3-methylbenzene [Example 53]”, the “Blood, % Injected Dose/Gram Tissue” value [1, 3] is reported as 0.76 % Injected Dose/Gram Tissue, the “Brain, % Injected Dose/Gram Tissue” value [1, 3] is reported as 0.29 % Injected Dose/Gram Tissue and the “Heart, % Injected Dose/Gram Tissue” value [1, 3] is reported as 1.58 % Injected Dose/Gram Tissue. For the same substance, the “Blood, % Injected Dose/Gram Tissue” value [1, 4] was 0.41 % Injected Dose/Gram Tissue, the “Brain, % Injected Dose/Gram Tissue” value [1, 4] was 0.29 % Injected Dose/Gram Tissue and the “Heart, % Injected Dose/Gram Tissue” value [1, 4] was 0.85 % Injected Dose/Gram Tissue. For the same substance, the “Brain:Blood” value ([1]; 5 min after i.v. injection) was 0.38, the “Heart:Blood” value ([1]; 5 min after i.v. injection) was 2.06 and the “Brain:Blood” value ([1]; 30 min after i.v. injection) was 0.71. For the same substance, the “Heart:Blood” value ([1]; 30 min after i.v. injection) was 2.09 and the Electrophoresis [2] was “neutral”.
